Test results as given in US20040007689A1, “Process for controlling the hydrate mix of a compound” (Pfizer Inc., priority 2002, published 2004).

Key:
[1] = Chemical and thermal stability of DSFF hydration forms and hydrate mixes; assay type: physicochemical; settings: for stability of hydration form (chemical / thermal): hydration forms of DSFF, solid state
[2] = Water content of freeze-dried DSFF product; assay type: physicochemical; settings: DSFF subjected to a typical freeze-drying process

| stability of hydration form (chemical / thermal) [1] | stability of product of typical freeze-drying process ([1]; DSFF after typical freeze-drying with secondary drying, water content about 1.2% w/w (below monohydrate stoichiometry)) | water content of product of typical freeze-drying process [2] | Structure (SMILES) |
| --- | --- | --- | --- |
| chemically and thermally stable |  |  | O.O.O.O=P([O-])([O-])OC(Cn1cncn1)(Cn1cncn1)c1ccc(F)cc1F.[Na+].[Na+] [trihydrate, DSFF Trihydrate] |
| chemically and thermally stable |  |  | O.O.O.O.O.O.O=P([O-])([O-])OC(Cn1cncn1)(Cn1cncn1)c1ccc(F)cc1F.[Na+].[Na+] [hexahydrate, DSFF Hexahydrate] |
|  | chemically unstable and degrades | about 1.2 % w/w | O=P([O-])([O-])OC(Cn1cncn1)(Cn1cncn1)c1ccc(F)cc1F.[Na+].[Na+] [DSFF, disodium salt of fosfluconazole] |
